The source of these data is patent US12264139B2, “Aryl sulfonamides as BLT1 antagonists” (Merck Sharp & Dohme LLC, priority 2015, dated 2025).

For the assay, the target named is T1, human BLT1 receptor (Homo sapiens, UniProt Q15722).
T1 construct: expressed in transfected cells; host or cells: HEK293
T1 sequence (Q15722 whole entry): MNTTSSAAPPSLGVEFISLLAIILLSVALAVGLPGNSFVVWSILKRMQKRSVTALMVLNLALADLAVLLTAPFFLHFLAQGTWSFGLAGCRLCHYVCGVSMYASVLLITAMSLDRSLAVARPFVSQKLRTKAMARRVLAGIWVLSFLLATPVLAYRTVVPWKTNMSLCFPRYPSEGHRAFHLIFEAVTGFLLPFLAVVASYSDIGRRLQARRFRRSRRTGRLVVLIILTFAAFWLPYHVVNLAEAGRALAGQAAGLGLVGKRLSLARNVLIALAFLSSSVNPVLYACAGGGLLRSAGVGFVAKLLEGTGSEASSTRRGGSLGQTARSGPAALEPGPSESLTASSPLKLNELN
In words: BLT-1 cAMP Assay. The class given is cell-based. The following applies: HEK293 cells recombinantly expressing human BLT1; antagonist activity vs forskolin 4 μM and LTB4 2 nM; cAMP (CisBio kit). The procedure:
The ability of compounds to antagonize the human BLT1 receptor was determined using a kit to measure changes in intracellular cyclic AMP levels (cAMP dynamic assay kit, Cisbio Cat. No. 62AM4PEC). […] The cell suspension was centrifuged at 200×g for 10 min and then resuspended in fresh assay medium to a density of 2.5×10^5 cells/mL. […] All subsequent liquid additions were performed using a BIORAPTR (FRD; Beckman Coulter). Next, 5 μL of cell suspension was added and incubated for 20 min. at 37° C. and 5% CO2 in a humidified plastic tray.
The levels of cAMP were detected using the CisBio kit following the manufacturer's instructions: cAMP-d2 vial was reconstituted with distilled water and then diluted accordingly with conjugate & lysis buffer. 5 µL of cAMP-d2 working solution was added to all of the wells of the assay plate. cAMP-Cryptate vial was reconstituted with distilled water and then diluted accordingly with conjugate & lysis buffer. 5 µL of cAMP-Cryptate working solution were added to the assay plate. The assay plate was shaken for 3 minutes and incubated at room temperature for 45 minutes, then read on Perkin Elmer Envision. cAMP standard curve and fit data were plotted using a 4 parameter dose response curve fitting algorithm to fit curve. […] After normalization to treated and untreated controls, the percent effect of signal at each compound concentration was calculated. The plot of percent effect versus the log of compound concentration was fit with a 4-parameter concentration response equation to calculate EC50 values.
By EC50 is commonly meant the concentration at which the effect is half-maximal. Consider `Cc1cnc(C[C@@H]2COc3cc(-c4ccccc4NS(=O)(=O)C(F)(F)F)ccc3[C@H]2O)s1` (single isomer, unassigned) [Example 52, 1,1,1-trifluoro-N-(2-{(3S,4R or 3R,4S)-4-hydroxy-3-[(5-methyl-1,3-thiazol-2-yl)methyl]-3,4-dihydro-2H-chromen-7-yl}phenyl)methanesulfonamide], for which the EC50 was 4040 nM. As for `Cc1cnc(C[C@H]2COc3cc(-c4ccccc4NS(=O)(=O)C(F)(F)F)ccc3[C@@H]2O)s1` (single isomer, unassigned) [Example 53, 1,1,1-trifluoro-N-(2-{(3R,4S or 3S,4R)-4-hydroxy-3-[(5-methyl-1,3-thiazol-2-yl)methyl]-3,4-dihydro-2H-chromen-7-yl}phenyl)methanesulfonamide], the EC50 turned out to be 69 nM. In the case of `Cc1nc(C[C@@H]2COc3cc(-c4ccccc4NS(=O)(=O)C(F)(F)F)ccc3[C@H]2O)cs1` (single isomer, unassigned) [Example 56, 1,1,1-Trifluoro-N-(2-{(3R,4S or 3S,4R)-4-hydroxy-3-[(2-methyl-1,3-thiazol-4-yl)methyl]-3,4-dihydro-2H-chromen-7-yl}phenyl)-methanesulfonamide], the EC50 was determined as 826 nM. For `Cc1nc(C[C@H]2COc3cc(-c4ccccc4NS(=O)(=O)C(F)(F)F)ccc3[C@@H]2O)cs1` (single isomer, unassigned) [Example 57, 1,1,1-Trifluoro-N-(2-{(3S,4R or 3R,4S)-4-hydroxy-3-[(2-methyl-1,3-thiazol-4-yl)methyl]-3,4-dihydro-2H-chromen-7-yl}phenyl)-methanesulfonamide], the EC50 came to 10 nM. For `O=S(=O)(Nc1ccccc1-c1ccc2c(c1)OC[C@H](Cc1ccccc1)[C@H]2O)C(F)(F)F` (single isomer, unassigned) [Example 59, N-{2-[(3S,4R or 3R,4S)-3-benzyl-4-hydroxy-3,4-dihydro-2H-chromen-7-yl]phenyl}-1,1,1-trifluoromethanesulfonamide], the EC50 worked out at 15 nM. The figure for `Cc1cccnc1C[C@H]1COc2cc(-c3ccccc3NS(=O)(=O)C(F)(F)F)ccc2[C@@H]1O` (single isomer, unassigned) [Example 60, 1,1,1-Trifluoro-N-(2-{(3,4-trans)-4-hydroxy-3-[(3-methylpyridin-2-yl)methyl]-3,4-dihydro-2H-chromen-7-yl}phenyl)methanesulfonamide] is 269 nM. Consider `O=S(=O)(Nc1ccccc1-c1ccc2c(c1)OC[C@@H](Cc1cccs1)[C@@H]2O)C(F)(F)F` (single isomer, unassigned) [Example 61, 1,1,1-trifluoro-N-{2-[(3R,4S or 3S,4R)-4-hydroxy-3-(thiophen-2-ylmethyl)-3,4-dihydro-2H-chromen-7-yl]phenyl}methanesulfonamide], for which the concentration for a half-maximal effect (EC50) came to 1340 nM.

With `O=S(=O)(Nc1ccccc1-c1ccc2c(c1)OC[C@H](Cc1cccs1)[C@H]2O)C(F)(F)F` (single isomer, unassigned) [Example 62, 1,1,1-trifluoro-N-{2-[(3S,4R or 3R,4S)-4-hydroxy-3-(thiophen-2-ylmethyl)-3,4-dihydro-2H-chromen-7-yl]phenyl}methanesulfonamide], the EC50 is 23 nM. Consider `Cc1cccc(C[C@@H]2COc3cc(-c4ccccc4NS(=O)(=O)C(F)(F)F)ccc3[C@H]2O)n1` (single isomer, unassigned) [Example 63, 1,1,1-Trifluoro-N-(2-{(3,4-trans)-4-hydroxy-3-[(6-methyl-pyridin-2-yl)methyl]-3,4-dihydro-2H-chromen-7-yl}-phenyl)methanesulfonamide], for which the EC50 came out at 320 nM.

In the case of `O=S(=O)(Nc1ccccc1-c1ccc2c(c1)OC[C@@H](Cc1csc(-c3ccccc3)n1)[C@@H]2O)C(F)(F)F` (single isomer, unassigned) [Example 64, 1,1,1-Trifluoro-N-(2-((3R,4S or 3S,4R)-4-hydroxy-3-((2-phenylthiazol-4-yl)-methyl)chroman-7-yl)-phenyl)methanesulfonamide], the EC50 came out at 971 nM. On to `O=S(=O)(Nc1ccccc1-c1ccc2c(c1)OC[C@H](Cc1csc(-c3ccccc3)n1)[C@H]2O)C(F)(F)F` (single isomer, unassigned) [Example 65, 1,1,1-Trifluoro-N-(2-((3S,4R or 3R,4S)-4-hydroxy-3-((2-phenylthiazol-4-yl)-methyl)chroman-7-yl)-phenyl)methanesulfonamide], for which the EC50 turned out to be 47 nM. With `Cn1nccc1C[C@@H]1COc2cc(-c3ccccc3NS(=O)(=O)C(F)(F)F)ccc2[C@H]1O` (single isomer, unassigned) [Example 66, 1,1,1-trifluoro-N-(2-{(3,4-trans)-4-hydroxy-3-[(1-methyl-1H-pyrazol-5-yl)methyl]-3,4-di-hydro-2H-chromen-7-yl}-phenyl)methanesulfonamide], the half-maximal effective concentration (EC50) was determined as 210 nM. The figure for `O=S(=O)(Nc1ccccc1-c1ccc2c(c1)OC[C@@H](Cc1ccc(-c3ccccc3)cc1)[C@@H]2O)C(F)(F)F` (single isomer, unassigned) [Example 67, N-{2-[(3S,4R or 3R,4S)-3-(biphenyl-4-ylmethyl)-4-hydroxy-3,4-dihydro-2H-chromen-7-yl]phenyl}-1,1,1-trifluoromethanesulfonamide] is 48 nM. As to `O=S(=O)(Nc1ccccc1-c1ccc2c(c1)OC[C@H](Cc1ccc(-c3ccccc3)cc1)[C@H]2O)C(F)(F)F` (single isomer, unassigned) [Example 68, N-{2-[(3R,4S or 3S,4R)-3-(biphenyl-4-ylmethyl)-4-hydroxy-3,4-dihydro-2H-chromen-7-yl]phenyl}-1,1,1-trifluoromethanesulfonamide], the concentration giving a half-maximal response (EC50) amounted to 5.3 nM. `O=S(=O)(Nc1ccccc1-c1ccc2c(c1)OC[C@@H](Cc1ncccc1F)[C@@H]2O)C(F)(F)F` (single isomer, unassigned) [Example 69, 1,1,1-Trifluoro-N-(2-{(3,4-trans)-3-[(3-fluoropyridin-2-yl)methyl]-4-hydroxy-3,4-dihydro-2H-chromen-7-yl}phenyl)methanesulfonamide]: the EC50 worked out at 30 nM.

Regarding `Cc1nnc(C[C@@H]2COc3cc(-c4ccccc4NS(=O)(=O)C(F)(F)F)ccc3[C@H]2O)s1` (single isomer, unassigned) [Example 70, 1,1,1-Trifluoro-N-(2-{(3,4-trans)-4-hydroxy-3-[(5-methyl-1,3,4-thiadiazol-2-yl)methyl]-3,4-dihydro-2H-chromen-7-yl}phenyl)-methanesulfonamide], the EC50 stood at 261 nM. With `O=S(=O)(Nc1ccccc1-c1ccc2c(c1)OC[C@@H](Cc1cc[nH]n1)[C@@H]2O)C(F)(F)F` (single isomer, unassigned) [Example 71, 1,1,1-trifluoro-N-{2-[(3,4-trans)-4-hydroxy-3-(1H-pyrazol-3-ylmethyl)-3,4-dihydro-2H-chromen-7-yl]phenyl}-methanesulfonamide], the EC50 was 125 nM.

`CS(=O)(=O)Nc1ccccc1-c1ccc2c(c1)OC[C@H](Cc1ccccn1)[C@H]2O` (single isomer, unassigned) [Example 72, N-{2-[(3S,4R or 3R,4S)-4-hydroxy-3-(pyridin-2-ylmethyl)-3,4-dihydro-2H-chromen-7-yl]phenyl}methanesulfonamide]: the EC50 was found to be 2980 nM.

Take `CS(=O)(=O)Nc1ccccc1-c1ccc2c(c1)OC[C@@H](Cc1ccccn1)[C@@H]2O` (single isomer, unassigned) [Example 73, N-{2-[(3R,4S or 3S,4R)-4-hydroxy-3-(pyridin-2-ylmethyl)-3,4-dihydro-2H-chromen-7-yl]phenyl}methanesulfonamide]: the EC50 turned out to be 193 nM. The figure for `CC1(S(=O)(=O)Nc2ccccc2-c2ccc3c(c2)OCC(Cc2ccccn2)C3O)CC1` (single isomer, unassigned) [Example 75, N-(2-((3,4-trans)-4-hydroxy-3-(pyridin-2-ylmethyl)chroman-7-yl)phenyl)-1-methylcyclopropane-1-sulfonamide] is 235 nM. As for `O=S(=O)(CC(F)(F)F)Nc1nccnc1-c1ccc2c(c1)OC[C@@H](Cc1ccccn1)[C@@H]2O` (single isomer, unassigned) [Example 76, 2,2,2-Trifluoro-N-(3-((3,4-trans)-4-hydroxy-3-(pyridin-2-ylmethyl)chroman-7-yl)pyrazin-2-yl)ethanesulfonamide], the EC50 is 1860 nM. Regarding `O=S(=O)(CC(F)(F)F)Nc1ncccc1-c1ccc2c(c1)OC[C@@H](Cc1ccccn1)[C@@H]2O` (single isomer, unassigned) [Example 77, 2,2,2-Trifluoro-N-(3-((3R,4S or 3S,4R)-4-hydroxy-3-(pyridin-2-ylmethyl)chroman-7-yl)pyridin-2-yl)ethanesulfonamide], the EC50 stood at 118 nM. As for `O=S(=O)(CC(F)(F)F)Nc1ncccc1-c1ccc2c(c1)OC[C@@H](Cc1ccccn1)[C@@H]2O` (single isomer, unassigned) [Example 78, 2,2,2-Trifluoro-N-(3-((3S,4R or 3R,4S)-4-hydroxy-3-(pyridin-2-ylmethyl)chroman-7-yl)pyridin-2-yl)ethanesulfonamide], the EC50 was 1870 nM.
